Measurements published in the NIST ThermoML archive (doi:10.1021/je049814b).

Test: wn = mass fraction of the nth substance listed
Settings: Liquid, Coaxial cylinder method

[Br-].[Na+] [sodium bromide] + O
thermal conductivity [W/m/K]
Settings	100 kPa	2000 kPa	10000 kPa	40000 kPa
294.3 K, w1 = 0.1	0.58	0.58	0.586	0.596
294.7 K, w1 = 0.38	0.504	0.504	0.512	0.525
296 K, w1 = 0.2	0.56	0.56	0.565	0.575
297.2 K, w1 = 0.3	0.537	0.537	0.541	0.55
319.6 K, w1 = 0.38	0.531	0.531	0.536	0.549
319.9 K, w1 = 0.2	0.595	0.595	0.599	0.609
321.7 K, w1 = 0.1	0.618	0.618	0.624	0.635
323.9 K, w1 = 0.3	0.573	0.573	0.578	0.587
347.2 K, w1 = 0.38	0.56	0.56	0.565	0.578
350.2 K, w1 = 0.2	0.624	0.624	0.628	0.639
354.2 K, w1 = 0.1	0.648	0.648	0.653	0.664
357.7 K, w1 = 0.3	0.601	0.601	0.608	0.617
374.5 K, w1 = 0.38	0.58	0.58	0.589	0.603
377.9 K, w1 = 0.2	0.637	0.637	0.642	0.653
378.6 K, w1 = 0.1	0.659	0.659	0.663	0.674
380.2 K, w1 = 0.3	0.61	0.61	0.617	0.627
396.5 K, w1 = 0.2	0.643	0.643	0.648	0.659
398.7 K, w1 = 0.38	0.585	0.585	0.593	0.609
399.2 K, w1 = 0.1	0.664	0.664	0.669	0.679
401 K, w1 = 0.3	0.615	0.615	0.623	0.633
424.5 K, w1 = 0.38	0.585	0.585	0.593	0.609
426.4 K, w1 = 0.3	0.614	0.614	0.624	0.637
427.5 K, w1 = 0.1	0.664	0.664	0.671	0.682
429.2 K, w1 = 0.2	0.643	0.643	0.649	0.659
450.6 K, w1 = 0.2	0.632	0.632	0.638	0.652
453.7 K, w1 = 0.1	0.652	0.652	0.659	0.672
455 K, w1 = 0.3	0.6	0.6	0.608	0.621
456.7 K, w1 = 0.38	0.572	0.572	0.583	0.6
483.2 K, w1 = 0.2	–	–	0.618	0.634
483.2 K, w1 = 0.38	–	–	0.569	0.59
486.2 K, w1 = 0.1	–	–	0.639	0.66
515.3 K, w1 = 0.1	–	–	0.611	0.634
515.7 K, w1 = 0.38	–	–	0.535	0.565
519.4 K, w1 = 0.2	–	–	0.583	0.601
541.3 K, w1 = 0.38	–	–	0.504	0.539
542.7 K, w1 = 0.1	–	–	0.576	0.604
547.6 K, w1 = 0.2	–	–	0.546	0.571
576.2 K, w1 = 0.2	–	–	0.504	0.535
576.5 K, w1 = 0.38	–	–	0.454	0.494
577.3 K, w1 = 0.1	–	–	0.525	0.566
